The test system of this experiment is OPCs. The experiment can be described thus: HD-DoE 12-factor model for stage 4 on OPCs, 6 days in culture. In kind it is cell-based, human. To be noted: optimized for PLP1 at 3600; negative impact. As to the method: To engineer the recipe of stage 4 of differentiation, 48 or 96 different combinations of effectors generated using Design-of-Experiments compression through D-optimality were robotically prepared. The effector combinations were prepared in a basal media and were subsequently added to the cells, which were treated with the stage 1, stage 2 and stage 3 differentiation media as described in the earlier examples to generate OPCs. […] Solutions within the tested space could then be explored to address desirability. […] Benarroch (2009) Neurology 72:1779-1785; Shi et al. (2019) Exp Ther Med, 18:1258-1266).

In the case of `c1ccc2c(Oc3nc(Nc4ccc(N5CCOCC5)cc4)c4ncn(C5CCCCC5)c4n3)cccc2c1` [Purmorphamine], the factor contribution came out at 10.

The record behind these values is patent US12729368B2, “Methods and compositions for generating oligodendrocyte progenitor cells” (Trailhead Biosystems Inc., priority 2022, dated 2026).
